target: T1, human V1a receptor (Homo sapiens, UniProt P37288); test: human V1a receptor binding (3H-Vasopressin SPA); conditions: displacement of 3H-Vasopressin; membranes of HEK293 cells transiently transfected with human V1a receptor; Ki by Cheng-Prussoff equation
T1 construct: expressed in transfected cells; host or cells: HEK293 cells, transiently transfected; cell membranes
Experimental: The human V1a receptor was cloned by RT-PCR from total human liver RNA. The coding sequence was subcloned in an expression vector after sequencing to confirm the identity of the amplified sequence. […] Cell membranes were prepared from HEK293 cells transiently transfected with the expression vector and grown in 20 liter fermenters with the following protocol.
50 g of cells were resuspended in 30 ml freshly prepared ice cold Lysis buffer (50 mM HEPES, 1 mM EDTA, 10 mM MgCl2 adjusted to pH=7.4+complete cocktail of protease inhibitor (Roche Diagnostics)). The mixture was homogenized with Polytron for 1 min and sonicated on ice for 2×2 minutes at 80% intensity (Vibracell sonicator). The preparation was centrifuged 20 min at 500 g at 4° C., the pellet was discarded and the supernatant centrifuged 1 hour at 43'000 g at 4° C. (19'000 rpm). The pellet was resuspended in 12.5 ml Lysis buffer+12.5 ml Sucrose 20% and homogenized using a Polytron for 1-2 min. The protein concentration was determined by the Bradford method and aliquots were stored at −80° C. until use. For binding studies 60 mg Yttrium silicate SPA beads (Amersham) were mixed with an aliquot of membrane in binding buffer (50 mM Tris, 120 mM NaCl, 5 mM KCl, 2 mM CaCl2, 10 mM MgCl2) for 15 minutes with mixing. 50 ul of bead/membrane mixture was then added to each well of a 96 well plate, followed by 50 ul of 4 nM 3H-Vasopressin (American Radiolabeled Chemicals). For total binding measurement, 100 ul of binding buffer were added to the respective wells; for non-specific binding, 100 ul of 8.4 mM cold vasopressin were added; and for compound testing, 100 ul of a serial dilution of each compound in 2% DMSO was added. The plate was incubated 1 h at room temperature, centrifuged 1 min at 1000 g and counted on a Packard Top-Count. Non-specific binding counts were subtracted from each well and data was normalized to the maximum specific binding set at 100%. To calculate an IC 50 the curve was fitted using a non-linear regression model (XLfit) and the Ki was calculated using the Cheng-Prussoff equation.

T1 sequence (P37288 whole entry): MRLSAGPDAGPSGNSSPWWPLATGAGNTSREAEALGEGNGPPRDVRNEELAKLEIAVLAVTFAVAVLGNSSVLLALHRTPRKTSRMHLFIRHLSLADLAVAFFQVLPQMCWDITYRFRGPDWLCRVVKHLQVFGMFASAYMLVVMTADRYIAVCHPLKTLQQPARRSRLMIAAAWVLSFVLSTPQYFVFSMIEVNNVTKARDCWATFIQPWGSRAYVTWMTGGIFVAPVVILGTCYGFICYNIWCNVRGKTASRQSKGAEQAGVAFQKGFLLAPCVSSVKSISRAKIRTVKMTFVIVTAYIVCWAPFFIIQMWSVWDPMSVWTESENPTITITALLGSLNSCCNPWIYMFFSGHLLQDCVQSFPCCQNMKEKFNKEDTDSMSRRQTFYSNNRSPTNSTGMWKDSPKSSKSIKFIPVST

Question: Which Ki does the source give for `CN(C)Cc1cc(Cl)cc2cc(C(=O)N3CCC4(CC3)OCc3ccccc34)[nH]c12` [Example 15, 1-[5-chloro-2-(1′H,3H-spiro[2-benzofuran-1,4′-piperidin]-1′-ylcarbonyl)-1H-indol-7-yl]-N,N-dimethylmethanamine] here?
Answer: 3.63 nM

Question: Which Ki does the source give for `CN(C)C(=O)Cn1c(C(=O)N2CCC3(CC2)OC(=O)c2ccccc23)cc2cc(Cl)ccc21` [Example 4, 2-{5-chloro-2-[(3-oxo-1′H,3H-spiro[2-benzofuran-1,4′-piperidin]-1′-yl)carbonyl]-1H-indol-1-yl}-N,N-dimethylacetamide] here?
Answer: 17.4 nM

Question: How did the Ki turn out when `Cc1ccc2c(C)c(C(=O)N3CCC4(CC3)COc3ccccc34)[nH]c2c1C` [Example 24, 1′-[(3,6,7-trimethyl-1H-indol-2-yl)carbonyl]spiro[1-benzofuran-3,4′-piperidine]] was run?
Answer: 9.77 nM

Question: With `Cc1c(C(=O)N2CCC3(CC2)COc2ccccc23)[nH]c2c(C)cccc12` [Example 26, 1′-[(3,7-dimethyl-1H-indol-2-yl)carbonyl]spiro[1-benzofuran-3,4′-piperidine]] as the compound, how does the Ki read?
Answer: 7.24 nM

Question: For `COc1c(C(=O)N2CCC3(CC2)OCc2ccccc23)[nH]c2cccc(Br)c12` [Example 8, 1′-[(4-bromo-3-methoxy-1H-indol-2-yl)carbonyl]-3H-spiro[2-benzofuran-1,4′-piperidine]], which Ki is on record?
Answer: 30.2 nM

Question: With `CN1CCN(C(=O)Cc2cc(Cl)cc3cc(C(=O)N4CCC5(CC4)OCc4ccccc45)[nH]c23)CC1` [Example 14, 1′-({5-chloro-7-[2-(4-methylpiperazin-1-yl)-2-oxoethyl]-1H-indol-2-yl}carbonyl)-3H-spiro[2-benzofuran-1,4′-piperidine]] as the compound, how does the Ki read?
Answer: 2.75 nM

Question: With `O=C(c1cc2cc(Cl)ccc2[nH]1)N1CCC2(CC1)OCc1ccccc12` [Example 9, 1′-[(5-chloro-1H-indol-2-yl)carbonyl]-3H-spiro[2-benzofuran-1,4′-piperidine]] as the compound, how does the Ki read?
Answer: 5.5 nM

Question: `N#CCn1c(C(=O)N2CCC3(CC2)C(=O)Nc2ccc(Br)cc23)cc2cc(Cl)ccc21` [Example 46, {2-[(5-Bromo-2-oxo-1,2-dihydro-1′H-spiro[indole-3,4′-piperidin]-1′-yl)carbonyl]-5-chloro-1H-indol-1-yl}acetonitrile] was tested. Which Ki did it give?
Answer: 21.4 nM

Question: With `N#CCc1cc(Cl)cc2cc(C(=O)N3CCC4(CC3)OC(=O)c3ccccc34)[nH]c12` [Example 5, {5-chloro-2-[(3-oxo-1′H,3H-spiro[2-benzofuran-1,4′-piperidin]-1′-yl)carbonyl]-1H-indol-7-yl}acetonitrile] as the compound, how does the Ki read?
Answer: 6.61 nM

Question: Which Ki does the source give for `O=C1OC2(CCN(C(=O)c3cc4cc(Cl)ccc4[nH]3)CC2)c2ccccc21` [Example 2, 1′-[(5-chloro-1H-indol-2-yl)carbonyl]-3H-spiro[2-benzofuran-1,4′-piperidin]-3-one] here?
Answer: 32.4 nM

Question: `O=C(c1cc2cc(F)ccc2[nH]1)N1CCC2(CC1)OCc1ccccc12` [Example 6, 1′-[(5-fluoro-1H-indol-2-yl)carbonyl]-3H-spiro[2-benzofuran-1,4′-piperidine]] was tested. Which Ki did it give?
Answer: 17.8 nM

Question: How did the Ki turn out when `O=C(c1cc2cc(Cl)cc(CN3CCOCC3)c2[nH]1)N1CCC2(CC1)OCc1ccccc12` [Example 11, 1′-{[5-chloro-7-(morpholin-4-ylmethyl)-1H-indol-2-yl]carbonyl}-3H-spiro[2-benzofuran-1,4′-piperidine]] was run?
Answer: 3.8 nM

Question: With `CN(C)CCNC(=O)Cc1cc(Cl)cc2cc(C(=O)N3CCC4(CC3)OCc3ccccc34)[nH]c12` [Example 13, 2-[5-chloro-2-(1′H,3H-spiro[2-benzofuran-1,4′-piperidin]-1′-ylcarbonyl)-1H-indol-7-yl]-N-[2-(dimethylamino)ethyl]acetamide] as the compound, how does the Ki read?
Answer: 7.76 nM

Question: `O=C1OC2(CCN(C(=O)c3cc4cc(Cl)ccc4[nH]3)CC2)c2ccc(F)cc21` [Example 1, 1′-[(5-chloro-1H-indol-2-yl)carbonyl]-5-fluoro-3H-spiro[2-benzofuran-1,4′-piperidin]-3-one] was tested. Which Ki did it give?
Answer: 41.7 nM

Question: `CN1CCN(Cc2cc(Cl)cc3cc(C(=O)N4CCC5(CC4)OCc4ccccc45)[nH]c23)CC1` [Example 12, 1′-({5-chloro-7-[(4-methylpiperazin-1-yl)methyl]-1H-indol-2-yl}carbonyl)-3H-spiro[2-benzofuran-1,4′-piperidine]] was tested. Which Ki did it give?
Answer: 21.4 nM

Question: Which Ki does the source give for `N#CCc1cc(Cl)cc2cc(C(=O)N3CCC4(CC3)OCc3ccccc34)[nH]c12` [Example 10, [5-chloro-2-(1′H,3H-spiro[2-benzofuran-1,4′-piperidin]-1′-ylcarbonyl)-1H-indol-7-yl]acetonitrile] here?
Answer: 2.09 nM
